In patent US11752122B2 (OKLAHOMA MEDICAL RESEARCH FOUNDATION, priority 2018, dated 2023):
Like-named read-outs stand apart in the source and are kept apart here.

Tests used:
[1] = IV formulations; cited from earlier work
[2] = Activity and stability of NAC dissolved in water; type: physicochemical; conditions: up to 15 days; tested by effect on blocking shear-dependent TGF-β1 activation
Source text: Experimental Design. […] Water was replaced with a fresh solution every week.

LDLR mice on HFD = conditions: for WSS (wall shear stress) / fractional valve opening: LDLR mice on HFD, vs untreated control mice
Source text: Mice. Hypercholesterolemic mice deficient for low-density lipoprotein receptors (Ldlr−/−), which only express ApoB-100 (Ldlr−/−Apob100/100, LDLR), were obtained from Jackson Laboratories (B6; 129SLdlrtm1HerApobtm2Sgy/J, stock no. 003000). WT C57bl/6 mice were also obtained from the Jackson Laboratory (stock no. 000664) and served as controls. TGF-β1^platelet-KO-LDLR mice (Pf4Cre+Tgfb1f/f;Ldlr−/−Apob100/100;) and TGF-β1^flox-LDLR littermate controls (Tgfb1f/f;Ldlr−/−Apob100/100) were generated by crossing LDLR mice with Pf4Cre+;Tgfb1f/f mice, as shown in FIGS. 7A-B and Supplemental Table 5. […] The inventor crossed Tie2Cre mice (stock no. 008863, Jackson Laboratories) with tdTomato lox-stop-lox mice (stock no. 007909, Jackson Laboratories) to generate Tie2Cre;tdTomato mice that express tdTomato only under Cre activity. All mice were housed in a controlled environment (23±2° C.; 12 hours light/dark cycles) and fed either a chow diet (CD) (PicoLab® Rodent Diet 20, 5053) or a customized high fat diet (HFD) (Harlan Teklad, TD.9612102. containing 21% milk fat (MF), 1.25% Cholesterol) in powdered form in a glass jar with perforated metal strainer (DYETS, Braintree Scientific Inc.). The Oklahoma Medical Research Foundation's Institutional Animal Care and Usage Committee approved all procedures.
Experimental Design. A total of 118 LDLR (58 Males, 60 Females) and 20 WT mice (10 Males, 10 Females) were used for this study. Half of the mice (6 weeks old) were switched to HFD and maintained for up to 9 months. Progression and severity (mild/moderate/severe) of AS were monitored at 0, 3, 6 and 9 months by echocardiography using non-invasive ultrasound imaging techniques. Five mice per cage (total of 25 males, 15 females) were treated with 2% N-acetylcysteine (NAC) (Acros Organics, 160280010) in drinking water. NAC was prepared in reverse osmosis water and its pH was adjusted to 7.4 with NaOH. Water was replaced with a fresh solution every week.
Echocardiography. Mice were anesthetized with Isoflurane (3-5% inhalation) in an induction chamber. Mice that appeared to be sick due to severe stenosis or that were underweight were anesthetized using a lower isoflurane level to prevent adverse or lethal effects from the anesthetic. Once visibly anesthetized, isoflurane was reduced to 0.5%-2% and the mouse was moved from the chamber to a nose-cone on a heated platform set at 40° C. to maintain body temperature (35±2° C.). Heavier mice were maintained at higher isoflurane levels as they appeared less sensitive to its anesthetic effects. All four limbs were taped to physiological electrodes and a rectal temperature probe was inserted. Electrode gel was used to enhance the physiologic readings. To ensure accuracy of all echo measurements, physiological parameters were monitored and recordings were only taken if the heart rate was 430-550 beats per minute, respiration was 20-100 breaths per minute, and body temperature was close to 37° C. (35±2° C.).
Measurement of AS parameters using a modified view of ultrasound imaging. Echocardiography is the gold standard non-invasive method to measure AS in humans. However, the mouse heart rate is 10-times faster (500 to 600 beats per minute), making the acquisition of high-resolution images of the very thin non-diseased valves challenging. […] LVOT was measured from the long-axis view and was used to calculate AV pressure and normalize the cusp separation (Lindman et al., 2016; Meyer et al., 2012). This view was obtained by tilting the lower left corner of the platform downward by about 30° and angling the transducer up such that it interfaced with the chest cavity by about 45°.

[3] = LDLR HFD + NAC (2-5 Months), total n=8
[4] = LDLR HFD + NAC (3-5 Months), total n=11
[5] = LDLR HFD + NAC (5-6 Months), total n=7

**Q.** Which “patients experiencing anaphylaxis reaction” value [1] does the source give for `CC(=O)N[C@@H](CS)C(=O)O` [NAC, N-acetylcysteine] here?
**A.** The value was “Up to 18%”.

**Q.** What about the “activity and stability after dissolving in water” value [2] of the same compound?
**A.** The value was “validated”.

**Q.** And the “Penetrance, fractional valve opening: Mild Stenosis 0.75-0.85, number of mice” value (LDLR mice on HFD; [3])?
**A.** Its value is 1.

**Q.** What about the “Penetrance, fractional valve opening: Mild Stenosis 0.75-0.85, percent of mice” value (LDLR mice on HFD; [3]) of the same compound?
**A.** Its value is “(12%)”.

**Q.** And the “Penetrance, fractional valve opening: Moderate Stenosis 0.6-0.75, number of mice” value (LDLR mice on HFD; [3])?
**A.** The value was 2.

**Q.** What about the “Penetrance, fractional valve opening: Moderate Stenosis 0.6-0.75, percent of mice” value (LDLR mice on HFD; [3]) of the same compound?
**A.** The value was “(25%)”.

**Q.** What about the “Penetrance, fractional valve opening: No Stenosis >0.85, number of mice” value (LDLR mice on HFD; [3]) of the same compound?
**A.** The value was 0.

**Q.** What about the “Penetrance, fractional valve opening: No Stenosis >0.85, percent of mice” value (LDLR mice on HFD; [3]) of the same compound?
**A.** The value was “(0%)”.

**Q.** And the “Penetrance, fractional valve opening: Severe Stenosis <0.6, number of mice” value (LDLR mice on HFD; [3])?
**A.** Its value is 5.

**Q.** And the “Penetrance, wall shear stress: Mild Stenosis 350-525 dyn/cm^2, number of mice” value (LDLR mice on HFD; [3])?
**A.** Its value is 0.

**Q.** And the “Penetrance, wall shear stress: Mild Stenosis 350-525 dyn/cm^2, percent of mice” value (LDLR mice on HFD; [3])?
**A.** Its value is “(0%)”.

**Q.** And the “Penetrance, wall shear stress: Moderate Stenosis 525-700 dyn/cm^2, number of mice” value (LDLR mice on HFD; [3])?
**A.** The value was 3.

**Q.** And the “Penetrance, wall shear stress: Moderate Stenosis 525-700 dyn/cm^2, percent of mice” value (LDLR mice on HFD; [3])?
**A.** The value was “(37%)”.

**Q.** What about the “Penetrance, wall shear stress: No Stenosis <350 dyn/cm^2, number of mice” value (LDLR mice on HFD; [3]) of the same compound?
**A.** The value was 0.

**Q.** And the “Penetrance, wall shear stress: No Stenosis <350 dyn/cm^2, percent of mice” value (LDLR mice on HFD; [3])?
**A.** The value was “(0%)”.

**Q.** What about the “Penetrance, wall shear stress: Severe Stenosis >700 dyn/cm^2, number of mice” value (LDLR mice on HFD; [3]) of the same compound?
**A.** The value was 6.

**Q.** What about the “Penetrance, wall shear stress: Severe Stenosis >700 dyn/cm^2, percent of mice” value (LDLR mice on HFD; [3]) of the same compound?
**A.** The value was “(63%)”.

**Q.** What about the “Penetrance, fractional valve opening: Mild Stenosis 0.75-0.85, number of mice” value (LDLR mice on HFD; [4]) of the same compound?
**A.** The value was 2.

**Q.** What about the “Penetrance, fractional valve opening: Mild Stenosis 0.75-0.85, percent of mice” value (LDLR mice on HFD; [4]) of the same compound?
**A.** Its value is “(16%)”.

**Q.** And the “Penetrance, fractional valve opening: Moderate Stenosis 0.6-0.75, number of mice” value (LDLR mice on HFD; [4])?
**A.** Its value is 7.

**Q.** What about the “Penetrance, fractional valve opening: Moderate Stenosis 0.6-0.75, percent of mice” value (LDLR mice on HFD; [4]) of the same compound?
**A.** Its value is “(64%)”.

**Q.** What about the “Penetrance, fractional valve opening: No Stenosis >0.85, number of mice” value (LDLR mice on HFD; [4]) of the same compound?
**A.** Its value is 0.

**Q.** And the “Penetrance, fractional valve opening: No Stenosis >0.85, percent of mice” value (LDLR mice on HFD; [4])?
**A.** The value was “(0%)”.

**Q.** What about the “Penetrance, fractional valve opening: Severe Stenosis <0.6, number of mice” value (LDLR mice on HFD; [4]) of the same compound?
**A.** Its value is 2.

**Q.** And the “Penetrance, fractional valve opening: Severe Stenosis <0.6, percent of mice” value (LDLR mice on HFD; [4])?
**A.** Its value is “(18%)”.

**Q.** And the “Penetrance, wall shear stress: Mild Stenosis 350-525 dyn/cm^2, number of mice” value (LDLR mice on HFD; [4])?
**A.** The value was 4.

**Q.** What about the “Penetrance, wall shear stress: Mild Stenosis 350-525 dyn/cm^2, percent of mice” value (LDLR mice on HFD; [4]) of the same compound?
**A.** The value was “(36%)”.

**Q.** What about the “Penetrance, wall shear stress: Moderate Stenosis 525-700 dyn/cm^2, number of mice” value (LDLR mice on HFD; [4]) of the same compound?
**A.** The value was 5.

**Q.** And the “Penetrance, wall shear stress: Moderate Stenosis 525-700 dyn/cm^2, percent of mice” value (LDLR mice on HFD; [4])?
**A.** The value was “(46%)”.

**Q.** And the “Penetrance, wall shear stress: No Stenosis <350 dyn/cm^2, number of mice” value (LDLR mice on HFD; [4])?
**A.** The value was 0.

**Q.** What about the “Penetrance, wall shear stress: No Stenosis <350 dyn/cm^2, percent of mice” value (LDLR mice on HFD; [4]) of the same compound?
**A.** The value was “(0%)”.

**Q.** What about the “Penetrance, wall shear stress: Severe Stenosis >700 dyn/cm^2, number of mice” value (LDLR mice on HFD; [4]) of the same compound?
**A.** Its value is 2.

**Q.** What about the “Penetrance, wall shear stress: Severe Stenosis >700 dyn/cm^2, percent of mice” value (LDLR mice on HFD; [4]) of the same compound?
**A.** Its value is “(18%)”.

**Q.** And the “Penetrance, fractional valve opening: Mild Stenosis 0.75-0.85, number of mice” value (LDLR mice on HFD; [5])?
**A.** The value was 3.

**Q.** What about the “Penetrance, fractional valve opening: Mild Stenosis 0.75-0.85, percent of mice” value (LDLR mice on HFD; [5]) of the same compound?
**A.** Its value is “(43%)”.

**Q.** And the “Penetrance, fractional valve opening: Moderate Stenosis 0.6-0.75, number of mice” value (LDLR mice on HFD; [5])?
**A.** Its value is 4.

**Q.** What about the “Penetrance, fractional valve opening: Moderate Stenosis 0.6-0.75, percent of mice” value (LDLR mice on HFD; [5]) of the same compound?
**A.** The value was “(57%)”.

**Q.** And the “Penetrance, fractional valve opening: No Stenosis >0.85, number of mice” value (LDLR mice on HFD; [5])?
**A.** The value was 0.

**Q.** What about the “Penetrance, fractional valve opening: No Stenosis >0.85, percent of mice” value (LDLR mice on HFD; [5]) of the same compound?
**A.** Its value is “(0%)”.

**Q.** What about the “Penetrance, fractional valve opening: Severe Stenosis <0.6, number of mice” value (LDLR mice on HFD; [5]) of the same compound?
**A.** Its value is 0.

**Q.** And the “Penetrance, fractional valve opening: Severe Stenosis <0.6, percent of mice” value (LDLR mice on HFD; [5])?
**A.** Its value is “(0%)”.

**Q.** And the “Penetrance, wall shear stress: Mild Stenosis 350-525 dyn/cm^2, number of mice” value (LDLR mice on HFD; [5])?
**A.** The value was 3.

**Q.** And the “Penetrance, wall shear stress: Mild Stenosis 350-525 dyn/cm^2, percent of mice” value (LDLR mice on HFD; [5])?
**A.** Its value is “(43%)”.

**Q.** What about the “Penetrance, wall shear stress: Moderate Stenosis 525-700 dyn/cm^2, number of mice” value (LDLR mice on HFD; [5]) of the same compound?
**A.** Its value is 4.

**Q.** What about the “Penetrance, wall shear stress: Moderate Stenosis 525-700 dyn/cm^2, percent of mice” value (LDLR mice on HFD; [5]) of the same compound?
**A.** The value was “(57%)”.

**Q.** And the “Penetrance, wall shear stress: No Stenosis <350 dyn/cm^2, number of mice” value (LDLR mice on HFD; [5])?
**A.** The value was 0.

**Q.** What about the “Penetrance, wall shear stress: No Stenosis <350 dyn/cm^2, percent of mice” value (LDLR mice on HFD; [5]) of the same compound?
**A.** Its value is “(0%)”.

**Q.** What about the “Penetrance, wall shear stress: Severe Stenosis >700 dyn/cm^2, number of mice” value (LDLR mice on HFD; [5]) of the same compound?
**A.** Its value is 0.

**Q.** What about the “Penetrance, wall shear stress: Severe Stenosis >700 dyn/cm^2, percent of mice” value (LDLR mice on HFD; [5]) of the same compound?
**A.** The value was “(0%)”.

**Q.** And the “WSS (wall shear stress)” value (LDLR mice on HFD; NAC months 3-5 (moderate AS))?
**A.** Its value is “improved”.

**Q.** And the fractional valve opening (LDLR mice on HFD; NAC months 3-5 (moderate AS))?
**A.** The fractional valve opening was “improved”.

**Q.** And the “WSS (wall shear stress)” value (LDLR mice on HFD; NAC months 5-6 (severe AS))?
**A.** The value was “improved”.

**Q.** What about the fractional valve opening (LDLR mice on HFD; NAC months 5-6 (severe AS)) of the same compound?
**A.** Its fractional valve opening is “improved”.

**Q.** What about the “effect on AS” value (LDLR mice on HFD; long-term NAC treatment (1-6 months) (data not shown)) of the same compound?
**A.** Its value is “very little to no effect”.

**Q.** What about the “atherosclerotic plaque (adverse effect)” value (LDLR mice on HFD; mouse, in vivo) of the same compound?
**A.** Its value is “increased atherosclerotic plaque”.

**Q.** And the “heart function (adverse effect)” value (LDLR mice on HFD; mouse, in vivo)?
**A.** The value was “deterioration of heart function”.

**Q.** And the “mild to moderate AS progression” value (LDLR mice on HFD; short-term NAC treatment from 2-3 months (data not shown))?
**A.** The value was “halted”.
